{"source": "patent US10151753B2", "about": "“Microfluidic devices for isolating particles” (The General Hospital Corporation, priority 2013, dated 2018)", "key": {"Rec-1 cells": {"system": "Rec-1 cells", "assay": "Ibrutinib-BFL fluorescence imaging of captured cells on the microfluidic device", "format": "cell-based", "details": "Rec-1 mantle cell lymphoma cells, FIG. 24"}, "Jurkat cells": {"system": "Jurkat cells", "assay": "Ibrutinib-BFL fluorescence imaging of captured cells on the microfluidic device", "format": "cell-based", "details": "FIG. 24"}}, "data": [{"smiles": "Cc1cc(C)n2c1C=C1C=CC(CCC(=O)NCC=CC(=O)N3CCCC(n4nc(-c5ccc(Oc6ccccc6)cc5)c5c(N)ncnc54)C3)=[N+]1[B-]2(F)F", "note": "(centres unmarked) [Ibrutinib-BFL]", "values": [{"measurement": "fluorescence of cells when incubated with the imaging drug (binding)", "setting": "Rec-1 cells", "value": "exhibit fluorescence"}, {"measurement": "fluorescence of cells when incubated with the imaging drug (binding)", "setting": "Jurkat cells", "value": "do not exhibit fluorescent"}]}]}
